Legend:
[1] = background statement; cited from earlier work
[2] = Stability of closantel and levamisole combination at 30° C. (HPLC); format: physicochemical; conditions: closantel and levamisole combination incubated at 30° C.
Protocol: Stability of Closantel and Levamisole Combination at 30° C.
The mixture was analysed by HPLC at times zero, 3 and 12 months.

[3] = Pharmacokinetics of silymarin (plasma silybin a and b, HPLC); conditions: in vivo, 260 mg
Protocol: Pharmacokinetics of silymarin administered in various delivery systems, comparing a powdered extract of silymarin containing 28% silybin a and b and a silymarin:lecithin complex as described in Example 2 of silymarin containing the same amount of silybin a and b.
Silymarin was administered at a dose of 260 mg silybin a and b.
Blood samples were collected at 0, 2, 4, and 6 hours after administration and analysed by HPLC.
Silybin a and b were analysed as conjugated and unconjugated silybin a and b.

| Compound | absorption [1] | content at 0 months [2] | content at 3 months [2] | content at 12 months [2] | AUC of conjugated silybin A and B [3] | AUC of free silybin A and B [3] |
| --- | --- | --- | --- | --- | --- | --- |
| [Cr] [chromium] | 1-3% |  |  |  |  |  |
| Cc1cc(C(C#N)c2ccc(Cl)cc2)c(Cl)cc1NC(=O)c1cc(I)cc(I)c1O (stereo not drawn) [closantel] |  | 3.75 g % | 3.72 g % | 3.69 g % |  |  |
| c1ccc([C@H]2CN3CCSC3=N2)cc1 [levamisole] |  | 3.21 g % | 3.19 g % | 3.17 g % |  |  |
| Silymarin |  |  |  |  | 191 ng/h/mL | 6 ng/h/mL |

Reference: patent publication US20040167034A1, “Emulsion and dispersion formulations and method” (priority 2001, published 2004)
